Consider two compounds from patent US20250326765A1, “PDE4B INHIBITOR AND USE THEREOF” (XIZANG HAISCO PHARMACEUTICAL CO., LTD., priority 2022, published 2025).

Data set [1] in a line: Pharmacokinetic test in mice. The class given is in vivo, ICR mice.
Data set [2] has as its target T1, PDE4B1 (Homo sapiens, UniProt Q07343).
T1 construct: purchased BPS 60041
The data set can be described thus: Effect of compounds on PDE4B1 activity (IMAP fluorescence polarization kit). Format: biochemical. The settings on record: class symbols. Here is the method:
The IMAP Reaction Buffer containing 0.1% BSA (5×) in the kit was diluted into a 1-fold reaction buffer containing 1 mM DTT. 0.12 nM PDE4B1 (BPS, Cat #60041) was added to the 1-fold reaction buffer to form a 2-fold enzyme solution. 10 μL of the 2-fold enzyme solution was added to wells of a 384-well reaction plate. For the negative control well, 10 μL of the 1-fold reaction buffer was used instead of the enzyme solution. Centrifugation at 1000 rpm for 1 minute and incubation at room temperature for 15 minutes were carried out. 0.2 uM FAM-labeled cAMP (FAM-cAMP, Molecular Device, Cat #R7506) was added to the 1-fold reaction buffer to form a 2-fold substrate solution. 10 μL of the 2-fold substrate solution was added to each well of the 384-well reaction plate. Centrifugation at 1000 rpm for 1 minute was carried out. A reaction was carried out at room temperature for 20 minutes. IMAP Progressive Binding Buffer A (5×), IMAP Progressive Binding Buffer B (5×), and IMAP Progressive Binding Reagent (provided by IMAP FP IPP Explorer Kit) were prepared into a reaction stop solution according to the instructions for use. 60 μL of an […] reaction stop solution was added to each well of the 384-well reaction plate to stop the reaction, and the reaction product was centrifuged at 1000 rpm for 1 minute. Incubation at room temperature in the dark for 60 minutes was carried out. The mP values (Ex480/Em535 (s), Em535 (p)) were read by a microplate reader (Envision).
FP was usually represented by mP value. mP value for FP measurement=1000*(S−G*P)/(S+G*P) • S: fluorescence intensity in parallel direction • P: fluorescence intensity in perpendicular direction • G: G factor=1
[formula] • mP(sample): mP of the test compound in a reaction well • mP(negative control): mP in the negative control well • mP(positive control): mP in the positive control well
According to the calculated inhibition rate at each concentration, the IC50 value of each compound was calculated by XLFit excel add-in version 5.4.0.8 software.
Y=Bottom+(Top−Bottom)/(1+(IC50/X)^HillSlope) Fitting formula: […]

Data set [3] can be described thus: Pharmacokinetic test in beagle dogs. The class given is in vivo. Here is the method:
6.1 Experimental animals: male beagle dogs, about 8-11 kg, 6 beagle dogs/compound, purchased from Beijing Marshall Biotechnology Co., Ltd.
6.2 Experimental method: On the day of the experiment, 18 beagle dogs were randomly grouped according to their body weights. The animals were fasted with water available for 12-14 h one day before administration and fed 4 h after administration. Administration was carried out according to Table 8.
Before and after administration, 1 ml of blood was taken from the jugular vein or limb vein and placed in an EDTAK2 centrifuge tube. Centrifugation was carried out at 5000 rpm at 4° C. for 10 min, and plasma was collected. The blood collection time points for the intravenous group and intragastric group were both 0 min, 5 min, 15 min, 30 min, 1 h, 2 h, 4 h, 6 h, 8 h, 10 h, 12 h, 24 h, 48 h, and 72 h. Before analysis and detection, all the samples were stored at −80° C., and the samples were subjected to quantitative analysis using LC-MS/MS.

Data set [4] can be described thus: Pharmacokinetic test in monkeys. Format: in vivo, cynomolgus monkeys. The protocol:
Experimental animals: Male cynomolgus monkeys, 3-5 kg, 3-6 years old, 6 monkeys/compound. Purchased from Suzhou Xishan Biotechnology Inc.
Experimental method: On the day of the experiment, 12 monkeys were randomly grouped according to their body weights. The animals were fasted with water available for 14-18 h one day before administration and fed 4 h after administration.
Before and after administration, 1.0 mL of blood sample was taken from the limb vein and placed in an EDTAK2 centrifuge tube. Centrifugation was carried out at 5000 rpm at 4° C. for 10 min, and plasma was collected. The blood collection time points for the intravenous group were 0 min, 5 min, 15 min, 30 min, 1 h, 2 h, 4 h, 6 h, 8 h, 10 h, 12 h, and 24 h. Before analysis and detection, all the samples were stored at −80° C., and the samples were subjected to quantitative analysis using LC-MS/MS.

The mark [5] stands for this setting: male, ICR, mouse, iv, plasma, i.v. (5 mg/kg).
The mark [6] stands for this setting: male, ICR, mouse, po, plasma, i.g. (10 mg/kg).
Where [7] appears, read: male, dog, iv, plasma, i.v. (1 mg/kg).
[8] abbreviates: male, dog, po, plasma, i.g. (5 mg/kg).
Setting [9] is: male, cynomolgus monkey, iv, plasma, i.v. (1 mg/kg).

As usually defined, the AUC(0-t) is exposure summed from dosing to a finite time, without extrapolation to infinity. Low readings indicate low exposure, high ones high exposure. As usually defined, the clearance is the rate of elimination divided by the concentration. Read a high clearance as a high capacity for elimination. What is called half-life is the time in which the quantity being followed falls by half. The term IC50 denotes the point on the concentration scale where inhibition reaches its midpoint.

Structures are written as SMILES.

T1 sequence (Q07343 whole entry): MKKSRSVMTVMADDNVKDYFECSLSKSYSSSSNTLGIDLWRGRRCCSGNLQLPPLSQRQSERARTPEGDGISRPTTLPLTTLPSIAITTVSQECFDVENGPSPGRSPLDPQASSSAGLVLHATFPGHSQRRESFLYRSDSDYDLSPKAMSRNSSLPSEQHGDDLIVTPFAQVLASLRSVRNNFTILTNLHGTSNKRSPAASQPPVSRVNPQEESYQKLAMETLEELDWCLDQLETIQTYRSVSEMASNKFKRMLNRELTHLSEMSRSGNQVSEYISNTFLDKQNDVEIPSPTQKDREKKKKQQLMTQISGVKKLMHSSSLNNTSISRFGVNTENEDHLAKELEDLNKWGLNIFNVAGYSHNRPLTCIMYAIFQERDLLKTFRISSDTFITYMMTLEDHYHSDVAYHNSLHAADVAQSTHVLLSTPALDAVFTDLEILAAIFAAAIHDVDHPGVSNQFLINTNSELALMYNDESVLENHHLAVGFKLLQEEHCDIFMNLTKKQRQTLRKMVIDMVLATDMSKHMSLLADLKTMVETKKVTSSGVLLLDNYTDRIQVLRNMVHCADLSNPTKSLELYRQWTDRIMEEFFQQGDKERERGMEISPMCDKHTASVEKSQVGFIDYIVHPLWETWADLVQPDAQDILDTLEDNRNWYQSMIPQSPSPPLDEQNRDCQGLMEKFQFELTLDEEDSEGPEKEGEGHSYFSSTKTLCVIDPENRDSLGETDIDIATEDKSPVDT

`C#Cc1cnc(C2=CCN(c3nc4c(c(NC5(CO)CCC5)n3)[S+]([O-])CC4)CC2)nc1` (stereo not drawn) [Compound 37] returned a F in data set [1] (i.g. (10 mg/kg)) of at least 98%. Moreover, in data set [1] (setting [5]), the AUC(0-t) was determined as 6000 ± 1090 ng·h/mL, the clearance is 7.03 ± 1.1 mL/min/kg and the half-life was 3.34 ± 0.3 h. In data set [1] (male, ICR, mouse, iv, plasma, i.v. (5 mg/kg), read-out: Vdss), the Vd is 1.3 ± 0.086 L/kg. In data set [1] (setting [6]), this compound had an AUC(0-t) of 26900 ± 3910 ng·h/mL and a half-life of 4.3 ± 0.69 h. Also, the IC50 in data set [2] is below 10 nM.
On to `[O-][S@+]1CCc2nc(N3C[C@H]4CN(c5ccc6c(c5)CC6)C[C@H]4C3)nc(NC3(CO)CCC3)c21` [Compound 31], for which the concentration for half-maximal inhibition (IC50) in data set [2] was below 10 nM. The F is on record as at least 98% in data set [3] (i.g. (5 mg/kg)) and 30.9 ± 13% in data set [4] (i.g. (3 mg/kg)). Further, the AUC(0-t) amounted to 7070 ± 3250 ng·h/mL in data set [3] (setting [7]); 26100 ± 11900 ng·h/mL in data set [3] (setting [8]); 8550 ± 664 ng·h/mL in data set [4] (setting [9]); 7930 ± 3240 ng·h/mL in data set [4] (male, cynomolgus monkey, po, plasma, i.g. (3 mg/kg)). Besides, the clearance was 2.69 ± 1.7 mL/min/kg in data set [3] (setting [7]) and 1.95 ± 0.15 mL/min/kg in data set [4] (setting [9]). In addition, the half-life was 5.85 ± 0.63 h in data set [3] (setting [7]) and 7.38 ± 1.2 h in data set [3] (setting [8]). Besides, the Vd in data set [3] (male, dog, iv, plasma, i.v. (1 mg/kg), read-out: Vdss) turned out to be 0.957 ± 0.37 L/kg; in data set [4] (male, cynomolgus monkey, iv, plasma, i.v. (1 mg/kg), read-out: Vdss), 0.888 ± 0.16 L/kg.
